Test systems include M19-MEL melanoma; DMS 273 small cell lung; RXF-631 renal; KM20L2 colon; SNB-78 CNS; XF 498 CNS; P388/ADR leukemia; PC-3 prostate; BT-549 breast; MDA-N; SN12K1 renal.
Experiment in all cases: NCI tumour cell line growth inhibition, 48 h

“And” between values parts separate entries of the source, which are not always exact repeats. Equal values may be shown once.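 How tested: cells in 96-well plates exposed to compound for 48 hours at five concentrations. Abbreviation: GI50, concentration required for 50% inhibition of growth. Definition used: TGI = concentration required for complete inhibition of growth.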 Bounds are passed on as bounds.

As for `CCOP(=O)(Cc1ccc(CP(=O)(OCC)OCC)n1C)OCC`, the TGI with M19-MEL melanoma, in the test with DMS 273 small cell lung, in the test with RXF-631 renal and in the test on KM20L2 colon was above 100 µM in each case.
Consider `S=C(N/N=C/c1ccco1)NC12CC3CC(CC(C3)C1)C2`, for which the TGI in the test with SNB-78 CNS, with XF 498 CNS, in the test with M19-MEL melanoma, in the test on DMS 273 small cell lung and in the test on KM20L2 colon was above 100 µM in each case.
As for `CC1OC(n2cc(F)c(=O)[nH]c2=O)C=CC1O` (centres undefined), the TGI in the test on SNB-78 CNS, with XF 498 CNS, with M19-MEL melanoma, in the test with DMS 273 small cell lung, with RXF-631 renal and with KM20L2 colon was above 100 µM in each case.
As to `COc1ccc(OC)c(NC(=O)C(=O)NNC(=O)c2sc(NNC(C)=O)nc2C)c1`, the TGI with SNB-78 CNS is above 100 µM; with XF 498 CNS it was 85.3 µM; with M19-MEL melanoma, above 100 µM; in the test with KM20L2 colon, above 100 µM.
With `O=c1n(CC2CO2)c(=O)n(CC2CO2)c(=O)n1CC1CO1` (centres undefined), the TGI is 199 µM in the test on SNB-78 CNS; 275 µM with P388/ADR leukemia; 75.4 µM and 92.2 µM and > 100 µM with PC-3 prostate; 67 µM and > 100 µM with BT-549 breast; 72 µM and 82.6 µM with MDA-N; 113 µM in the test on M19-MEL melanoma. Further, the TGI is 51.4 µM with DMS 273 small cell lung, 174 µM in the test with SN12K1 renal and 201 µM in the test on KM20L2 colon. The values for the GI50 in the test on PC-3 prostate, in the test with BT-549 breast and in the test on MDA-N were 20.3 µM, 13.6 µM and 26.5 µM, respectively.
Turning to `O=C1c2ccccc2C2(Br)C(=O)c3ccccc3C12` (centres undefined), the TGI with M19-MEL melanoma is above 100 µM; in the test with DMS 273 small cell lung, 42.5 µM; in the test with RXF-631 renal, 28.1 µM; with KM20L2 colon, above 100 µM.
With `COC(=O)C(C(=O)C(=O)Nc1cccc(OC)c1)c1cnc2ccccc2n1` (centres undefined), the TGI in the test on SNB-78 CNS, with XF 498 CNS, in the test with DMS 273 small cell lung, with RXF-631 renal and with KM20L2 colon was above 100 µM throughout.
For the compound `O=C1CN=C(C[N+](=O)[O-])c2ccccc21`, the TGI with SNB-78 CNS, with DMS 273 small cell lung, with RXF-631 renal and with KM20L2 colon was above 100 µM in each case.
`COC(=O)C1=C(C)N(NC(=O)c2ccccc2)C(C)(O)C12CCOC2=O` (centres undefined): the TGI with SNB-78 CNS, with XF 498 CNS, in the test on DMS 273 small cell lung and with KM20L2 colon was above 100 µM in each case.
For the compound `Cc1ccccc1N1C(=O)/C(=C/c2ccc(N(CCC#N)CCC#N)cc2)N=C1c1cc([N+](=O)[O-])ccc1Cl`, the TGI in the test on SNB-78 CNS, with DMS 273 small cell lung, in the test on RXF-631 renal and in the test with KM20L2 colon was above 100 µM in each case.
As for `O=C(Nc1nc2ncn(CCI)c2c(=O)[nH]1)c1ccccc1`, the TGI with SNB-78 CNS was above 100 µM; in the test on XF 498 CNS, above 61.2 µM; in the test on M19-MEL melanoma it was above 100 µM; in the test on DMS 273 small cell lung, above 100 µM; in the test with RXF-631 renal, above 100 µM; in the test with KM20L2 colon it was above 100 µM.
`C=C(CCCCC)CN1CCCC1[C@@](C)(O)CC(=O)OCC` (some centres undefined): the TGI in the test with SNB-78 CNS, in the test with XF 498 CNS, in the test on M19-MEL melanoma, in the test on DMS 273 small cell lung and in the test on KM20L2 colon was above 100 µM each time.
On to `CS(=O)(=O)N/N=C/CN1C(=O)c2ccccc2C1=O`, for which the TGI in the test on SNB-78 CNS, with XF 498 CNS, with M19-MEL melanoma, in the test with DMS 273 small cell lung and with KM20L2 colon was above 100 µM in each case.
With `COC(=O)C12C3C4C1C1C2C3C41C(=O)OC(C)(C)C` (centres undefined), the TGI is above 100 µM with SNB-78 CNS; above 100 µM in the test with XF 498 CNS; above 100 µM in the test with M19-MEL melanoma; above 60.5 µM with DMS 273 small cell lung; above 100 µM in the test on RXF-631 renal; above 100 µM with KM20L2 colon.
As to `O=[n+]1c2c(n([O-])c3ccccc31)CCCCCCCCCC2`, the TGI in the test on SNB-78 CNS, in the test on XF 498 CNS, in the test on M19-MEL melanoma, with DMS 273 small cell lung and with KM20L2 colon was above 100 µM throughout.
Regarding `CNC(=S)NC1CCCCC1NC(=S)NC` (centres undefined), the TGI in the test on SNB-78 CNS, in the test on XF 498 CNS, with M19-MEL melanoma, in the test with DMS 273 small cell lung, with RXF-631 renal and in the test with KM20L2 colon was above 100 µM throughout.
For `COC(=O)c1cc2c3ccccc3n(C(C)=O)c2cn1`, the TGI in the test on SNB-78 CNS is above 100 µM; with XF 498 CNS it was 89.9 µM; with M19-MEL melanoma, above 100 µM; with DMS 273 small cell lung it was above 100 µM; in the test on RXF-631 renal it was above 100 µM; in the test on KM20L2 colon it was above 100 µM.
Regarding `COC(=O)C1=C(c2ccc3c(c2)OCO3)O[C@H](c2cc(OC)c(OC)c(OC)c2)[C@H]1COC(C)=O`, the TGI in the test on SNB-78 CNS was above 100 µM; in the test with XF 498 CNS, 36.8 µM; in the test with M19-MEL melanoma it was 27.9 µM; in the test with DMS 273 small cell lung it was above 100 µM; in the test on KM20L2 colon it was 8.72 µM.
In the case of `O=C1CCCC/C(=C/c2ccccc2)N1`, the TGI with SNB-78 CNS, in the test on XF 498 CNS, with M19-MEL melanoma, with DMS 273 small cell lung and with KM20L2 colon was above 100 µM throughout.
Take `C=C(C=O)[C@@H]1C2OC(=O)C(=C)[C@@H]2CC(O)[C@@]1(C)CC` (some centres undefined): the TGI was found to be 24.9 µM in the test with SNB-78 CNS, 14.3 µM in the test on M19-MEL melanoma, 37.7 µM in the test with RXF-631 renal and 24.9 µM with KM20L2 colon.
For `O=C1OC(c2ccccc2)=N/C1=C/C=C/c1ccco1`, the TGI with SNB-78 CNS, with XF 498 CNS, with M19-MEL melanoma, in the test with RXF-631 renal and in the test on KM20L2 colon was above 100 µM each time.
In the case of `O=c1nc2occc2cn1C1CC(O)C(CO)O1` (centres undefined), the TGI in the test on SNB-78 CNS, in the test with XF 498 CNS, with M19-MEL melanoma, with DMS 273 small cell lung, with RXF-631 renal and in the test on KM20L2 colon was above 100 µM throughout.
As to `O=S(=O)([O-])c1ccc2c(c1)-c1nc-2nc2[n-]c(nc3nc(nc4[n-]c(n1)c1ccc(S(=O)(=O)[O-])cc41)-c1cc(S(=O)(=O)[O-])ccc1-3)c1ccc(S(=O)(=O)[O-])cc21.[Cu+2].[Na+]`, the GI50 was above 100 µM in the test with SNB-78 CNS; 9.44 µM in the test on PC-3 prostate; 68.3 µM in the test with XF 498 CNS; 47.4 µM with BT-549 breast; above 100 µM with MDA-N; 6.21 µM in the test with M19-MEL melanoma. The GI50 with DMS 273 small cell lung was 6.07 µM; with RXF-631 renal, above 86.8 µM; with KM20L2 colon it was 2.35 µM. In addition, the TGI in the test on SNB-78 CNS, in the test on PC-3 prostate, in the test with XF 498 CNS, in the test on BT-549 breast, with MDA-N and in the test on M19-MEL melanoma was above 100 µM in each case. Moreover, the TGI with DMS 273 small cell lung, in the test with RXF-631 renal and in the test on KM20L2 colon was above 100 µM in each case.
Consider `Cc1cc(Br)cc(C)c1NC(=O)C(=O)C(C(=O)c1ccc2ccccc2c1)C1OC(=O)c2ccccc21` (centres undefined), for which the TGI in the test with XF 498 CNS was 18 µM; in the test with M19-MEL melanoma, 46.3 µM; with DMS 273 small cell lung, 86 µM; with RXF-631 renal, above 100 µM; with KM20L2 colon, 38.7 µM.
As for `CC(C)(C)OC(=O)NCC(=O)OCc1ccccc1`, the TGI with SNB-78 CNS, in the test on XF 498 CNS, in the test on M19-MEL melanoma and in the test with DMS 273 small cell lung was above 100 µM throughout.
For the compound `O=S(O)CCCCSSCC(O)C(O)CSSCCCCS(=O)O` (centres undefined), the TGI in the test on SNB-78 CNS is 97.7 µM and > 100 µM; in the test on XF 498 CNS, 35.9 µM and 26 µM; with M19-MEL melanoma, 15.6 µM and 29.7 µM; in the test with DMS 273 small cell lung, above 100 µM; with RXF-631 renal, above 100 µM; in the test on KM20L2 colon it was above 100 µM.
For `Cc1ccc(S(=O)(=O)NCC2CCCCC2=O)cc1` (centres undefined), the TGI with SNB-78 CNS, in the test on XF 498 CNS, in the test with M19-MEL melanoma, with DMS 273 small cell lung and in the test on KM20L2 colon was above 100 µM throughout.
`O=C1c2ccccc2C(=O)C1(Cl)C1(S(=O)(=O)O)c2ccccc2-c2ccccc21`: the TGI with SNB-78 CNS, in the test with XF 498 CNS, in the test on M19-MEL melanoma, in the test on DMS 273 small cell lung and in the test on KM20L2 colon was above 100 µM each time.
Consider `CCOC(=O)Oc1c(OC)cc(C(=O)NC2CCc3cc(OC)c(OC)c(OC)c3-c3ccc(SC)c(=O)cc32)cc1OC` (centres undefined), for which the TGI in the test on XF 498 CNS was 0.896 µM; with M19-MEL melanoma, above 70 µM; in the test with DMS 273 small cell lung it was above 70 µM. The GI50 in the test on M19-MEL melanoma was below 0.007 µM; in the test with KM20L2 colon it was 0.0119 µM.

Source of the values: PubChem BioAssay (NCI).
